Data from patent US20260108521A1, “GSPT1 DEGRADERS, COMPOSITIONS COMPRISING THE DEGRADER, AND METHODS OF USING THE SAME” (BIOFRONT LTD, priority 2022, published 2026).

How the values were obtained:
[1] = molecular target: T1, GSPT1 protein (Homo sapiens, UniProt P15170+Q96SW2); assay: GSPT1 degradation assay (western blot) in HL-60 cells; type: cell-based; details: GSPT1 protein level, 2h incubation, western blot normalized to beta-Actin; for inhibition at 0.1 µM: 0.1 μM compound; for inhibition at 1 µM: 1 μM compound
T1 construct: endogenous in cells; host or cells: HL-60 cells
T1 sequence (P15170 whole entry): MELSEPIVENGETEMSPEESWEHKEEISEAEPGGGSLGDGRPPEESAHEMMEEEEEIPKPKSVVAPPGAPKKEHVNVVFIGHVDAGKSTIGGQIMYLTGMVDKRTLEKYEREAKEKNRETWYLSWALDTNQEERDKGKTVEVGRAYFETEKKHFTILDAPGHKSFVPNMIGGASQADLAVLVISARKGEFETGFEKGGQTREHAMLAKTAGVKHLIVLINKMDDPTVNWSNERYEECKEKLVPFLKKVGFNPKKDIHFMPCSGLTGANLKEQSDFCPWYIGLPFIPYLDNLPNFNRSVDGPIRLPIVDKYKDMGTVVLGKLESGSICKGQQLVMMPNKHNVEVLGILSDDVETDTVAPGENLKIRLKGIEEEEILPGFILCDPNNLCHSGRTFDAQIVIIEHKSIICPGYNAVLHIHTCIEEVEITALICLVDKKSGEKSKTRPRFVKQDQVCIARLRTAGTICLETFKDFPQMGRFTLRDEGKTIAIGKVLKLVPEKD
T1 sequence (Q96SW2 whole entry): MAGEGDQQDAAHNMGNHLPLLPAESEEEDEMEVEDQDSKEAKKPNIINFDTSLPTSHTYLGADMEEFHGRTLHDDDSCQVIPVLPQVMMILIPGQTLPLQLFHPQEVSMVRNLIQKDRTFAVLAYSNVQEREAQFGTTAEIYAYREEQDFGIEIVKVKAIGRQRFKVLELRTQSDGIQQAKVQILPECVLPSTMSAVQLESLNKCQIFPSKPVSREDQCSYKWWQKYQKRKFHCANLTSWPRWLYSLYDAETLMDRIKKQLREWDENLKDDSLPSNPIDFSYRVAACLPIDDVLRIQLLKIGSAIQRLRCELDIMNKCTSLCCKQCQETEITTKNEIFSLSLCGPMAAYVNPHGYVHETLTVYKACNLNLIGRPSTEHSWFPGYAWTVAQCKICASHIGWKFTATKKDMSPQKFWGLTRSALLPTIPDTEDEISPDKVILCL
T1 sequence (Q16531 whole entry partner): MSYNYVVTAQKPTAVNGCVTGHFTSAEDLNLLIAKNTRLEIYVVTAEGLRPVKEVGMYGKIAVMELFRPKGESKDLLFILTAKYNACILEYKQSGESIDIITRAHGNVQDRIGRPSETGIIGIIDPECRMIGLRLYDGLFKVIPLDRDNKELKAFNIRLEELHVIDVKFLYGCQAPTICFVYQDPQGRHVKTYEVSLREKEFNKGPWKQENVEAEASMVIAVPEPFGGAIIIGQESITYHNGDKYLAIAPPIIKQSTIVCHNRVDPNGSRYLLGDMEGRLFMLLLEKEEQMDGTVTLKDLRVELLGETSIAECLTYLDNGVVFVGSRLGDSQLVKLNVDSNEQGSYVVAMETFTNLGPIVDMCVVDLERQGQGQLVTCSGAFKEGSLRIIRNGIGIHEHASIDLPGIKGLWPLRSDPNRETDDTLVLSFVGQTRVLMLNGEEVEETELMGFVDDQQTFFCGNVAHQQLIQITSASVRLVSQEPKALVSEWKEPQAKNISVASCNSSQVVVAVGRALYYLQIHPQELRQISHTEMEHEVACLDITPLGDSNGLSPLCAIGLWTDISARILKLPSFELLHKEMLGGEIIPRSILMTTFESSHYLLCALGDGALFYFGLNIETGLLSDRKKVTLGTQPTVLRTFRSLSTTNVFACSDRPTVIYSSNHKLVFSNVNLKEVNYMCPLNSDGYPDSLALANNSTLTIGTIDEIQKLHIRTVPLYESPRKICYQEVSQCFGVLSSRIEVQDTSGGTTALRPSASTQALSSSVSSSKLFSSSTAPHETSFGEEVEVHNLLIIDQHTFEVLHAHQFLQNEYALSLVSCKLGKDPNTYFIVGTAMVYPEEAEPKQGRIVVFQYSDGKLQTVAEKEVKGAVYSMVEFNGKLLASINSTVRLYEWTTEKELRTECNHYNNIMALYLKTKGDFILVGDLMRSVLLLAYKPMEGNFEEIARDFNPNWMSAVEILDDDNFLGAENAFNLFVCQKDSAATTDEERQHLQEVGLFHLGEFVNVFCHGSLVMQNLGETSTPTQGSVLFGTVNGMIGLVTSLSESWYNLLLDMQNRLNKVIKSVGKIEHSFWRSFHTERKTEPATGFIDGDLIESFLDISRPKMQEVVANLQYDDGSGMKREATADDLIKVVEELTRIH
Method: HL-60 cells (4×10^^6 cells/well) were seeded in 6-well culture plate (Costar, 3516) and treated with a variety of concentrations of test compound. After 2h incubation, cells were collected and lysed. The protein concentration was determined by BCA protein assay kit from Thermo (23227). The GSPT1 protein level was determined by western blots, using GSPT1 polyclonal antibody. Proteins were loaded into each well of the pre-casting gels and subjected to electrophoretic separation by SDS-PAGE. The protein resolved by SDS-PAGE were transferred to PVDF, blocked by 5% skim milk and probed with anti-GSPT1 antibody (Proteintech, 10763-1-AP) or anti-β-actin antibody (CST, 3700S), using following standard western blotting procedure. Blots intensities were quantified using ImageJ software and the intensity of GSPT1 bands were normalized to beta-Actin bands, respectively. The GSPT1 degradation results were then calculated. Reported compound C84971 (see WO2021126974A1 and WO2021126973A1) was used as a reference.

[2] = test system: HL-60 cells; assay: Cell viability assay (CellTiter-Glo); type: cell-based; details: Homo sapiens, 72 h incubation, 6-point serial dilution
Method: HL-60 cells were seeded at a density of 7000 cells per well in 96-well culture plates (Corning 3903) with IMDM and treated with test compounds following a 6-point serial dilution. RPMI 1640 (0.1% DMSO) was used as control for each well. After 72 h incubation, cell viability was determined using the CellTiter-Glo assay kit (Promega, G9242) according to the manufacturer's instructions. The dose-response curves were determined and IC50 values were calculated using the GraphPad Prism software following a nonlinear regression method.

Row | SMILES | inhibition at 0.1 µM [1] [%] | inhibition at 1 µM [1] [%] | IC50 [2] [nM]
1 | O=C1CCC(N2C(=O)c3ccc(N4CCC(CN5CCCN(c6cccc(Br)c6)C5=O)CC4)cc3C2=O)C(=O)N1 (stereo not drawn) [Compound 9, 5-(4-((3-(3-bromophenyl)-2-oxotetrahydropyrimidin-1(2H)-yl)methyl)piperidin-1-yl)-2-(2,6-dioxopiperidin-3-yl)isoindoline-1,3-dione] | 0 | 15 | > 1000
2 | O=C1CCC(N2C(=O)c3ccc(N4CC(CCN5CCCN(c6cccc(Br)c6)C5=O)C4)cc3C2=O)C(=O)N1 (stereo not drawn) [Compound 10, 5-(3-(2-(3-(3-bromophenyl)-2-oxotetrahydropyrimidin-1(2H)-yl)ethyl)azetidin-1-yl)-2-(2,6-dioxopiperidin-3-yl)isoindoline-1,3-dione] | 40 | 45 | 144
3 | O=C1CCC(N2C(=O)c3ccc(N4CCC(CN5CCCN(c6ccc7ncccc7c6)C5=O)CC4)cc3C2=O)C(=O)N1 (stereo not drawn) [Compound 11, 2-(2,6-dioxopiperidin-3-yl)-5-(4-((2-oxo-3-(quinolin-6-yl)tetrahydropyrimidin-1(2H)-yl)methyl)piperidin-1-yl)isoindoline-1,3-dione] | 14 | < 5 | > 1000
4 | O=C1CCC(N2C(=O)c3ccc(N4CC(CCN5CCN(c6ccccc6)C5=O)C4)cc3C2=O)C(=O)N1 (stereo not drawn) [Compound 12, 2-(2,6-dioxopiperidin-3-yl)-5-(3-(2-(2-oxo-3-phenylimidazolidin-1-yl)ethyl)azetidin-1-yl)isoindoline-1,3-dione] | 0 | 0 | > 1000
5 | O=C1CCC(N2C(=O)c3ccc(N4CCC(CN5CCCN(c6cccc(C7CC7)c6)C5=O)CC4)cc3C2=O)C(=O)N1 (stereo not drawn) [Compound 15, 5-(4-((3-(3-cyclopropylphenyl)-2-oxotetrahydropyrimidin-1(2H)-yl)methyl)piperidin-1-yl)-2-(2,6-dioxopiperidin-3-yl)isoindoline-1,3-dione] | 30 | 57 | 290
6 | O=C1CCC(N2Cc3cc(N4CCC(CN5CCCN(c6ccccc6)C5=O)CC4)ccc3C2=O)C(=O)N1 (stereo not drawn) [Compound 19, 3-(1-oxo-5-(4-((2-oxo-3-phenyltetrahydropyrimidin-1(2H)-yl)methyl)piperidin-1-yl)isoindolin-2-yl)piperidine-2,6-dione] | 15 | 38 | > 1000
7 | O=C1CCC(N2C(=O)c3ccc(N4CC(CCN5CCCN(c6cccc(-c7cnc8c(cnn8C8CC8)c7)c6)C5=O)C4)cc3C2=O)C(=O)N1 (stereo not drawn) [Compound 22, 5-(3-(2-(3-(3-(1-cyclopropyl-1H-pyrazolo[3,4-b]pyridin-5-yl)phenyl)-2-oxotetrahydropyrimidin-1(2H)-yl)ethyl)azetidin-1-yl)-2-(2,6-dioxopiperidin-3-yl)isoindoline-1,3-dione] | 29 | 29 | > 1000
8 | O=C1CCC(N2C(=O)c3ccc(N4CC(CCN5CCCN(c6cccc(-c7cnc8ccccc8c7)c6)C5=O)C4)cc3C2=O)C(=O)N1 (stereo not drawn) [Compound 23, 2-(2,6-dioxopiperidin-3-yl)-5-(3-(2-(2-oxo-3-(3-(quinolin-3-yl)phenyl)tetrahydropyrimidin-1(2H)-yl)ethyl)azetidin-1-yl)isoindoline-1,3-dione] | 33 | 45 | > 1000
9 | O=C1CCC(N2C(=O)c3ccc(N4CC(CCN5CCCN(c6cccc(-c7cnc8[nH]ncc8c7)c6)C5=O)C4)cc3C2=O)C(=O)N1 (stereo not drawn) [Compound 25, 2-(2,6-dioxopiperidin-3-yl)-5-(3-{2-[2-oxo-3-(3-{1H-pyrazolo[3,4-b]pyridin-5-yl}phenyl)-1,3-diazinan-1-yl]ethyl}azetidin-1-yl)isoindole-1,3-dione] | 55 | 57 | 137
10 | CCc1c[nH]c2ccc(-c3cccc(N4CCCN(CCC5CN(c6ccc7c(c6)C(=O)N(C6CCC(=O)NC6=O)C7=O)C5)C4=O)c3)c(Cl)c12 (stereo not drawn) [Compound 26, 5-(3-(2-(3-(3-(4-chloro-3-ethyl-1H-indol-5-yl)phenyl)-2-oxotetrahydropyrimidin-1(2H)-yl)ethyl)azetidin-1-yl)-2-(2,6-dioxopiperidin-3-yl)isoindoline-1,3-dione] | 63 | 85 | 78
11 | CCc1c[nH]c2ccc(-c3cccc(N4CCCN(CCC5CN(c6ccc7c(c6)C(=O)N(C6CCC(=O)NC6=O)C7=O)C5)C4=O)c3)nc12 (stereo not drawn) [Compound 27, 2-(2,6-dioxopiperidin-3-yl)-5-(3-{2-[3-(3-{3-ethyl-1H-pyrrolo[3,2-b]pyridin-5-yl}phenyl)-2-oxo-1,3-diazinan-1-yl]ethyl}azetidin-1-yl)isoindole-1,3-dione] | 45 | 70 | 397

Next, values leading:

Row | inhibition at 0.1 µM [1] [%] | inhibition at 1 µM [1] [%] | IC50 [2] [nM] | SMILES
12 | 77 | 78 | 51 | Nc1ccc(-c2cccc(N3CCCN(CC4CCN(c5ccc6c(c5)C(=O)N(C5CCC(=O)NC5=O)C6=O)CC4)C3=O)c2)c(Cl)n1 (stereo not drawn) [Compound 28, 5-[4-({3-[3-(6-amino-2-chloropyridin-3-yl)phenyl]-2-oxo-1,3-diazinan-1-yl}methyl)piperidin-1-yl]-2-(2,6-dioxopiperidin-3-yl)isoindole-1,3-dione]
13 | 45 | 47 | 222 | CCc1c(N)ccc(-c2cccc(N3CCCN(CC4CCN(c5ccc6c(c5)C(=O)N(C5CCC(=O)NC5=O)C6=O)CC4)C3=O)c2)c1Cl (stereo not drawn) [Compound 29, 5-(4-((3-(4′-amino-2′-chloro-3′-ethyl-[1,1′-biphenyl]-3-yl)-2-oxotetrahydropyrimidin-1(2H)-yl)methyl)piperidin-1-yl)-2-(2,6-dioxopiperidin-3-yl)isoindoline-1,3-dione]
14 | 85 | > 95 | 10 | CCc1c[nH]c2ncc(-c3cccc(N4CCCN(CC5CCN(c6ccc7c(c6)C(=O)N(C6CCC(=O)NC6=O)C7=O)CC5)C4=O)c3)c(Cl)c12 (stereo not drawn) [Compound A, 5-(4-((3-(3-(4-chloro-3-ethyl-1H-pyrrolo[2,3-b]pyridin-5-yl)phenyl)-2-oxotetrahydropyrimidin-1(2H)-yl)methyl)piperidin-1-yl)-2-(2,6-dioxopiperidin-3-yl)isoindoline-1,3-dione]
15 | 45 | 75 | 122 | O=C1CCC(N2C(=O)c3cc(F)c(N4CCC(CCN5CCCN(c6cccc(-c7cnc8[nH]cc(C9CC9)c8c7Cl)c6)C5=O)CC4)cc3C2=O)C(=O)N1 (stereo not drawn) [Compound B, 5-(4-(2-(3-(3-(4-chloro-3-cyclopropyl-1H-pyrrolo[2,3-b]pyridin-5-yl)phenyl)-2-oxotetrahydropyrimidin-1(2H)-yl)ethyl)piperidin-1-yl)-2-(2,6-dioxopiperidin-3-yl)-6-fluoroisoindoline-1,3-dione]
16 | 0 | 0 | > 5000 | O=C1CCC(N2Cc3ccc(N4CCNC4=O)cc3C2=O)C(=O)N1 (stereo not drawn) [Compound C84971, reference compound]
17 | 86 | 95 | 9.2 | CCc1c[nH]c2ncc(-c3cccc(N4CCCN(CCC5CN(c6ccc7c(c6)C(=O)N(C6CCC(=O)NC6=O)C7=O)C5)C4=O)c3)c(Cl)c12 (stereo not drawn) [Compound F, 5-(3-(2-(3-(3-(4-chloro-3-ethyl-1H-pyrrolo[2,3-b]pyridin-5-yl)phenyl)-2-oxotetrahydropyrimidin-1(2H)-yl)ethyl)azetidin-1-yl)-2-(2,6-dioxopiperidin-3-yl)isoindoline-1,3-dione]
